Laboratory results published in patent US11274099B2 (Superb Wisdom Limited, priority 2017, dated 2022).

Assay: Pharmacokinetic analysis in male SD rats after IV bolus, plasma by LC-MS/MS
Type: in vivo
Conditions: rat, IV bolus 0.04 mg/kg; for Cmax / half-life: 3 rats per group; for half-life: read-out: T1/2, ± SD (converted); for MRT inf: read-out: MRT0-Inf (Mean Residence Time); for MRT last: read-out: MRT0-last (Mean Residence Time); for Vd: read-out: Vdss (apparent volume of distribution at equilibrium); for AUC(0-t): time zero to last measurable concentration; for AUC(0-inf): zero up to ∞
Procedure: Each of the tested compounds was administered as an IV bolus (3 rats per group) at a dose 0.04 mg/kg. Rats were fasted at least 12 hours prior to administration of test compound. […] Blood samples were processed for plasma and analyzed by LC-MS/MS for the following pharmacokinetic parameters: Cmax, T1/2, CL, Vdss, AUC0-last, AUC0-∞, MRT0-last, and MRT0-∞.

SMILES | Cmax [µg/mL] | half-life [h] | MRT inf [h] | MRT last [h] | Vd [L/kg] | AUC(0-t) [µg·h/mL] | AUC(0-inf) [µg·h/mL]
[2H]C([2H])([2H])C(O)(Cn1c(COCC)nc2c(N)nc3ccccc3c21)C([2H])([2H])[2H] [Compound 104, 2-((4-amino-2-(ethoxymethyl)-1H-imidazo[4,5-c]quinolin-1-yl)methyl)propan-1,1,1,3,3,3-d6-2-ol] | 0.0403 ± 0.0107 | 1.85 ± 1.05 | 2.1 ± 0.663 | 1.5 ± 0.328 | 2.62 ± 0.516 | 0.0562 ± 0.00651 | 0.0604 ± 0.00771
[2H]C([2H])([2H])C([2H])([2H])OCc1nc2c(N)nc3ccccc3c2n1CC(C)(C)O [Compound 107, 1-(4-amino-2-((ethoxy-d5)methyl)-1H-imidazo[4,5-c]quinolin-1-yl)-2-methylpropan-2-ol] | 0.0401 ± 0.00882 | 2.41 ± 1.71 | 2.43 ± 0.735 | 1.66 ± 0.151 | 3.23 ± 0.581 | 0.0548 ± 0.00602 | 0.0594 ± 0.00816
[2H]C([2H])([2H])C(O)(C([2H])([2H])[2H])C([2H])([2H])n1c(COCC)nc2c(N)nc3ccccc3c21 [Compound 113, 1-(4-amino-2-(ethoxymethyl)-1H-imidazo[4,5-c]quinolin-1-yl)-2-(methyl-d3)propan-1,1,3,3,3-d5-2-ol] | 0.0445 ± 0.0142 | 1.97 ± 1.76 | 1.79 ± 0.884 | 1.26 | 2.61 ± 0.732 | 0.0493 ± 0.00899 | 0.053 ± 0.0112
CCOCc1nc2c(N)nc3ccccc3c2n1CC(C)(C)O [Resiquimod, 1-(4-Amino-2-(ethoxymethyl)-1H-imidazo[4,5-c]quinolin-1-yl)-2-methylpropan-2-ol, reference compound] | 0.0438 ± 0.0109 | 1.03 ± 1.72 | 1.37 ± 0.139 | 1.09 ± 0.081 | 2.46 ± 0.361 | 0.0421 ± 0.00604 | 0.0459 ± 0.00667
